Assay [1] has as its system inflammatory lesions. Particulars: three lesions severity 1 on back; dermal spray morning and afternoon; after three days. The protocol: The usefulness of the method of the present invention was assessed in experiments using dogs.
Assay [2] deals with skin conditions. As for the experimental part:
Following these initial trials a further trial was conducted […].
The trial was a double-blinded, placebo controlled trial in which the compound was compared with placebo treatment. […] The study was conducted as follows:
1. Assessment by a veterinarian.
2. Treatment Period A: 14 days.
3. Assessment by a veterinarian.
4. No treatment for seven days as a wash-out period.
5. Assessment by a veterinarian.
6. Treatment Period B: 14 days.
7. Assessment by a veterinarian.
8. No treatment for seven days.
9. Assessment by a veterinarian.

Take “D-Ala-Ser-Thr-Thr-Thr-Asn-Tyr-Thr-NH2 [Peptide T]”: the “Treatment results (lesions)” value in assay [1] is “Lesions had disappeared”. In assay [2] (14 day treatment period, crossover with placebo), the “cases of mild improvement in one parameter (usually erythema)” value is on record as “five”. In addition, the “dogs with significant improvement” value in assay [2] (14 day treatment period, these dogs had atopic dermatitis) was “two”. Also, in assay [2] (14 day treatment periods, crossover with placebo), the “dogs with no change” value was “ten”.

Values taken from patent publication US5798335A, “Method for the treatment or prevention of eczema/dermatitis” (priority 1993, dated 1998).
